# Experimental data as given in paper PMC10741027, “Risk Assessment of Psychotropic Drugs on Mitochondrial Function Using In Vitro Assays” (Biomedicines, 2023).
# Like-named read-outs stand apart in the source and are kept apart here.
# Key:
# [1] = literature values, plasma or serum of adult humans when possible; ref 68-88 (per drug, Table 2 Cmax Reference); cited from earlier work
# [2] = tested on: HepG2 cells; set-up: method as in PMID 18344530; details: 200 µM, not in Glu media; cited from earlier work
# [3] = tested on: HepG2 cells; experiment: Acute extracellular flux (AEF) assay in intact HepG2 cells (Seahorse XFe96); assay type: cell-based, human
# [4] = tested on: rPFO permeabilized HepG2 cells; experiment: Mitochondrial respiratory complexes in rPFO permeabilized HepG2 cells (Seahorse XF); details: for AC50: Homo sapiens, HepG2, read-out: Pyruvate Respiration AC50
# [5] = tested on: HepG2 cells; experiment: Glu/Gal assay: cellular ATP (CellTiter-Glo) after 24 h in glucose or galactose media; details: for AC50 / minimal effective concentration: Homo sapiens, HepG2, 24 h
# [6] = tested on: CI; set-up: method as in PMID 18344530; details: isolated mitochondria; read-out: CI inhibition IC50; cited from earlier work
# [7] = tested on: rat liver mitochondria (CII-linked respiration); experiment: High-resolution respirometry, MMP and ROS in isolated rat liver mitochondria (Oroboros O2k); assay type: biochemical; details: for % MMP / % O2 consumption: basal succinate-driven respiration, normalized to control; for Mode of action on respiration in isolated RLM (in words): CII-linked respiration
# Procedure: Mitochondria were isolated from adult Wistar Rat liver. […] The liver was homogenized with 10 passes in a loose-fitting homogenizer, followed by 10 passes in a tight-fitting homogenizer, and filtered through muslin. The tissue homogenate was then centrifuged at 1000× g for 10 min at 4 °C and the supernatants were further centrifuged at 10,000× g for 10 min. The centrifugation steps were repeated, preserving the pellet. […] Protein concentration was determined using the Bradford method with bovine serum albumin as the standard. The Oroboros® Oxygraph-2K (Oroboros Instruments, Innsbruck, Austria) was used to simultaneously analyze high-resolution respirometry and mitochondrial membrane potential (MMP). […] At the beginning of each experiment, the O2k chambers were filled with 2 mL of reaction buffer (200 mM sucrose, 25 mM KCl, 5 mM MgCl2, 4 mM KH2PO4, 5 mM MOPS, pH 7.4) and equilibrated with air at 37 °C. During the experiments, the incubation chambers were kept at constant temperature by Peltier control (±0.001 °C) and the medium was stirred using white PVDF-coated stirrers (750 rpm). […] This was followed by serial additions of the drugs to assess their dose-dependent effect on the MMP and mitochondrial respiration. Injection of RLM results in an uptake of safranin and a corresponding decline in the fluorescence signal.
# [8] = tested on: CI-linked respiration; details: read-out: CI-linked respiration IC50; pig brain mitochondria; cited from earlier work
# [9] = tested on: respiratory CI; set-up: method as in PMID 9309697; details: human brain cortex; read-out: CI inhibition IC50; cited from earlier work
# [10] = tested on: complex I; set-up: method as in PMID 31104106; details: 50 µM, 30 min incubation; cited from earlier work
# [11] = tested on: CI-linked respiration; details: read-out: concentration inhibiting CI-linked respiration by 50%; rat liver isolated mitochondria; cited from earlier work
# [12] = tested on: HepG2 cells
# [13] = tested on: rPFO permeabilized HepG2 cells
# [14] = tested on: ADP-stimulated respiration; details: isolated rat liver mitochondria; cited from earlier work
# [15] = tested on: liver mitochondria; set-up: method as in PMID 1347214; details: rats fed 1% (w/w) for 75 days; cited from earlier work
# [16] = tested on: CII-linked respiration; details: read-out: CII-linked respiration IC50; pig brain mitochondria; cited from earlier work
# [17] = Homo sapiens, HepG2, minimum effective concentration crossing vehicle control threshold, read-out: MEC ATP Production
# [18] = Homo sapiens, HepG2, minimum effective concentration crossing vehicle control threshold, read-out: MEC OCR
# [19] = Homo sapiens, HepG2, minimum effective concentration crossing vehicle control threshold, read-out: MEC Reserve Capacity
# [20] = Homo sapiens, HepG2, concentration at which 50% maximum effect is observed, read-out: AC50 ATP Production
# [21] = Homo sapiens, HepG2, concentration at which 50% maximum effect is observed, read-out: AC50 ECAR
# [22] = Homo sapiens, HepG2, concentration at which 50% maximum effect is observed, read-out: AC50 OCR
# [23] = Homo sapiens, HepG2, concentration at which 50% maximum effect is observed, read-out: AC50 Proton Leak
# [24] = Homo sapiens, HepG2, concentration at which 50% maximum effect is observed, read-out: AC50 Reserve Capacity
# [25] = Homo sapiens, HepG2, minimum effective concentration crossing vehicle control threshold, read-out: MEC ECAR
# [26] = Homo sapiens, HepG2, minimum effective concentration crossing vehicle control threshold, read-out: MEC Proton Leak
SMILES,Cmax [1],"minimal effective concentration [3, 17]","minimal effective concentration [3, 18]","minimal effective concentration [3, 19]","AC50 [3, 20]","AC50 [3, 21]","AC50 [3, 22]","AC50 [3, 23]","AC50 [3, 24]",AC50 ([5]; read-out: Gal AC50),minimal effective concentration ([5]; read-out: Gal MEC),AC50 ([5]; read-out: Glu AC50),"minimal effective concentration [3, 25]","minimal effective concentration [3, 26]",minimal effective concentration ([5]; read-out: Glu MEC),further results
O=C1CC2(CCCC2)CC(=O)N1CCCCN1CCN(c2ncccn2)CC1 [Buspirone],0.003 µM,80.9 µM,4.83 µM,8.57 µM,> 100 µM,> 100 µM,> 100 µM,> 100 µM,43.7 µM,99 µM,35.7 µM,> 100 µM,,,,depletion (cytotoxicity) in Gal media [2]: 60%; AC50 [4]: > 100 µM; IC50 [6]: 48 µM
CN(C)CCCN1c2ccccc2Sc2ccc(Cl)cc21 [Chlorpromazine],0.9 µM,94.2 µM,73.4 µM,78.4 µM,> 100 µM,> 100 µM,> 100 µM,> 100 µM,> 100 µM,16.9 µM,10.5 µM,15.9 µM,15.6 µM,31 µM,10.7 µM,"% MMP ([7]; 20 μM): 88%; % O2 consumption ([7]; 20 μM): 111%; % MMP ([7]; 50 μM): 79%; % O2 consumption ([7]; 50 μM): 125%; % MMP ([7]; 100 μM): 72%; % O2 consumption ([7]; 100 μM): 131%; Mode of action on respiration in isolated RLM (in words) [7]: uncoupler of OXPHOS; Mode of action on respiration in isolated RLM (in words) ([7]; listed as chlorpromazine): uncoupler in basal respiration and an ETC inhibitor under uncoupled respiration; IC50 ([7]; CII-linked, succinate + rotenone, stimulated with 0.25 µM CCCP, 50–400 µM, read-out: IC50 uncoupled respiration): 135 µM; ROS production ([7]; uncoupled respiration, increasing concentrations): reduction in the production of ROS; Most sensitive mechanism / response in permeabilized HepG2 assay (OCR) ([4]; in words): did not show a significant response; IC50 [8]: 116 µM; IC50 [9]: 400 µM"
CN1CCN(C2=Nc3cc(Cl)ccc3Nc3ccccc32)CC1 [Clozapine],0.22 µM,37.3 µM,,,> 100 µM,> 100 µM,,,,60.8 µM,44.4 µM,56.7 µM,20.2 µM,,34.1 µM,decrease of complex I activity [10]: 85%
CNCCC(Oc1ccc(C(F)(F)F)cc1)c1ccccc1 (stereo not drawn) [Fluoxetine],0.04 µM,68.6 µM,8.12 µM,25.2 µM,,,,,70.4 µM,17.5 µM,12.1 µM,13.3 µM,67.3 µM,,6.89 µM,IC50 [11]: 250 µM
O=C1Nc2ccc(Cl)cc2C(c2ccccc2Cl)=NC1O (stereo not drawn) [Lorazepam],0.1 µM,,,,,,,,,> 100 µM,,> 100 µM,,,,"AC50 ([3]; Homo sapiens, HepG2, read-out: AC50 ATP Production): > 100 µM; AC50 ([3]; Homo sapiens, HepG2, read-out: AC50 ECAR): > 100 µM; AC50 ([3]; Homo sapiens, HepG2, read-out: AC50 OCR): > 100 µM; AC50 ([3]; Homo sapiens, HepG2, read-out: AC50 Proton Leak): 15 µM; AC50 ([3]; Homo sapiens, HepG2, read-out: AC50 Reserve Capacity): > 100 µM; minimal effective concentration ([3]; Homo sapiens, HepG2, read-out: MEC ATP Production): 3.2 µM; minimal effective concentration ([3]; Homo sapiens, HepG2, read-out: MEC OCR): 63.7 µM; minimal effective concentration ([3]; Homo sapiens, HepG2, read-out: MEC Proton Leak): 3.14 µM; Effect on cell viability / ATP in Glu and Gal media (in words) [12]: did not exhibit toxicity neither in glucose nor in galactose-grown cells; Most sensitive mechanism / response in permeabilized HepG2 assay (OCR) [13]: did not significantly inhibit any of the ETC complexes"
CN1CCN(CCCN2c3ccccc3Sc3ccc(C(F)(F)F)cc32)CC1 [Trifluoperazine],0.005 µM,,,< 0.002 µM,,,,,0.157 µM,1.13 µM,0.8 µM,1 µM,,,0.75 µM,"minimal effective concentration ([3]; minimum effective concentration crossing vehicle control threshold, read-out: MEC Reserve Capacity): <0.002 µM; inhibition of ADP-stimulated respiration (concentration) [14]: 66 µM; Effect on cell viability / ATP in Glu and Gal media (in words) ([5]; 24 h incubation, top concentration): complete loss of cell viability in both media"
CCCC(CCC)C(=O)O [Valproic acid],367 µM,5200 µM,520 µM,3090 µM,> 10000 µM,> 10000 µM,> 10000 µM,9180 µM,> 10000 µM,> 10000 µM,,> 10000 µM,2600 µM,1140 µM,,AC50 [4]: > 10000 µM; decrease in the respiration rate with substrates feeding CI and CII [15]: 30%
O=C1Cc2cc(CCN3CCN(c4nsc5ccccc45)CC3)c(Cl)cc2N1 [Ziprasidone],0.11 µM,0.95 µM,,,> 12.7 µM,,,2.19 µM,,> 40 µM,28.3 µM,,,0.12 µM,,IC50 [16]: 86 µM; IC50 [8]: 188 µM
